Legend:
Assay in all cases: P450-Glo screening system, CYP inhibition
Format in all cases: biochemical
CYP2D6 = biological target: T1, CYP2D6 (Homo sapiens, UniProt P10635); details: recombinant human CYP, luciferin-ME EGE
T1 construct: purchased Promega
Text: (§1) The P450-Glo™ screening systems (Promega; Madison, Wisconsin, USA) were used in this study to explore the inhibitory properties of MDP on the major CYP isoforms involved in xenobiotic metabolism (CYP1A2, CYP2C9, CYP2C19, CYP2D6, and CYP3A4). HepaRG cells were not utilized in this assay to avoid potential cross reactivity since all CYP enzymes are expressed in this cell line. Therefore, this inhibition study relied on recombinant human CYP enzymes integrated in membrane preparation. The principle of the assay is based on the conversion of a luminogenic substrate (100 µM luciferin-ME for CYP1A2, 100 µM luciferin-H for CYP2C9, 50 µM luciferin-H EGE for CYP2C19, 30 µM luciferin-ME EGE for CYP2D6, and 100 µM luciferin-PPXE for CYP3A4) to luciferin by the respective enzyme. The assay was conducted according to the instructions of the supplier. Briefly, eight non-cytotoxic concentrations of MDP or a CYP selective inhibitor were preincubated for 10 min at 37 °C together with the luminogenic substrate, potassium phosphate buffer, and luciferin-free water, and the test compounds were added to white 96-well Costar® plates. After the preincubation, 25 µL of NADPH regeneration system (2.6 mM NADP + , 6.6 mM glucose-6-phosphate, 6.6 mM MgCl2, and 0.8 U/mL glucose-6-phosphate dehydrogenase) was added to each well to initiate CYP reactions. The plates were briefly shaken and taped before they were incubated at 37 °C for 10–30 min depending on the CYP enzyme under investigation. Luminescence of the luciferin product was initiated by adding 50 µL of the luciferin detection reagent. Subsequently, the plates were briefly shaken and then incubated for 20 min at room temperature in order to stabilize the luminescent signal. The luminescence was measured on the Infinite M200 PRO plate reader (Tecan; Männedorf, Switzerland). The measurements were corrected by subtracting the minus P450 control signals from each measurement and represented as changes in luminescence signals (ΔRLU). The ΔRLU values of MDP were compared with the ΔRLU values of the untreated samples and represented as relative changes in luminescence in relation to the control (%). Three independent experiments with three technical replicates were conducted (n = 3). Means and standard deviations for each treatment were calculated before calculating the IC50 values of MDP for each CYP enzyme.
(§2) A linear mixed-effects ANOVA (α = 0.05) described by Pinheiro and Bates ([2000]) followed by a post-hoc Dunnett test for multiple comparisons of treatment groups versus the control was used for statistical analysis of data from cytotoxicity assay, AdipoRed assay, CYP450 inhibition assay as well as mixture effects. R studio (ver. 4.4.1) was used to determine the effective concentration at relative triglyceride induction fold of 1.5 for each test compound.

CYP2C9 = biological target: T2, CYP2C9 (Homo sapiens, UniProt P11712); details: recombinant human CYP, luciferin-H
T2 construct: purchased Promega
T2 sequence (P11712 whole entry): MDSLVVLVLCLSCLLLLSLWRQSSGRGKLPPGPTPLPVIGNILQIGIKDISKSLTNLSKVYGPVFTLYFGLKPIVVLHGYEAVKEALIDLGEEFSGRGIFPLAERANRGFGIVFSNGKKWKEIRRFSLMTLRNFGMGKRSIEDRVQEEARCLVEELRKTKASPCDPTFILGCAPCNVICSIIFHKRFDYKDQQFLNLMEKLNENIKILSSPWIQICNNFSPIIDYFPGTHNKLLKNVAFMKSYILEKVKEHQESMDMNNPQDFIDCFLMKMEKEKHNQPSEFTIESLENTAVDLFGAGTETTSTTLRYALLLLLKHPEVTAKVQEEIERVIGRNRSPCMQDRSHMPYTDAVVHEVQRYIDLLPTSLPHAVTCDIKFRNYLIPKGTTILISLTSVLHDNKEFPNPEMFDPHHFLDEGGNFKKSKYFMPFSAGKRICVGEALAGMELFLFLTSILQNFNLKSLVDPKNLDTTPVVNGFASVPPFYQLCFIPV
Text: as §1, §2

CYP3A4 = biological target: T3, CYP3A4 (Homo sapiens, UniProt P08684); details: recombinant human CYP, luciferin-PPXE
T3 construct: purchased Promega
T3 sequence (P08684 whole entry): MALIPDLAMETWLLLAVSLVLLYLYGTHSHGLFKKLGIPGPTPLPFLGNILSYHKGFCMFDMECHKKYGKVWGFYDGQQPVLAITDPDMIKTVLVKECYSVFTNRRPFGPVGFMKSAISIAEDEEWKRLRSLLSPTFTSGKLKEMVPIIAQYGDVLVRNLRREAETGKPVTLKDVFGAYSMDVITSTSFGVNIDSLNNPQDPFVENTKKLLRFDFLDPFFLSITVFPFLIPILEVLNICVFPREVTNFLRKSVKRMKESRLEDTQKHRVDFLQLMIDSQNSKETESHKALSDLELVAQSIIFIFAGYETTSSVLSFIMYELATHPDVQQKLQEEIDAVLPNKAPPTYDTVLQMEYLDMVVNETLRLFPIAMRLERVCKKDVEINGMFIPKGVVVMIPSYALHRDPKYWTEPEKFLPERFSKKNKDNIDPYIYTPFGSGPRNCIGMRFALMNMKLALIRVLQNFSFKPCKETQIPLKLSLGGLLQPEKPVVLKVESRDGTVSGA
Text: as §1, §2

T1 sequence (P10635 whole entry): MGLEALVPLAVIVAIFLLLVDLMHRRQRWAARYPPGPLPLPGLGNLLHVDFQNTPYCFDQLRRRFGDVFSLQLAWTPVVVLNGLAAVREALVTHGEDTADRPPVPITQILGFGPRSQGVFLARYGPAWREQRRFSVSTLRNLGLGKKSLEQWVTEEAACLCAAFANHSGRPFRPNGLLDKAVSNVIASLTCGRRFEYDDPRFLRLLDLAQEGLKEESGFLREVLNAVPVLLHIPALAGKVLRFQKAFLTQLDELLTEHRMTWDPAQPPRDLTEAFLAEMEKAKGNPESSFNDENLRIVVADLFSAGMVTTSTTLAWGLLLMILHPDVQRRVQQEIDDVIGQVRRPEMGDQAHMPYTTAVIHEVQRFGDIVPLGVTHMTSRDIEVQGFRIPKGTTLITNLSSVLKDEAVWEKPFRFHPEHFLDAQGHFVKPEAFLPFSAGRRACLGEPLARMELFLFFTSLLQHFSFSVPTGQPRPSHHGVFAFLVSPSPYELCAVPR

Q: Which results are given for `C#CCOc1ccc(CCNC(=O)C(OCC#C)c2ccc(Cl)cc2)cc1OC` (stereo not drawn) [MDP, mandipropamid]?
A: IC50 (CYP2D6): 18100 nM; IC50 CYP2D6 (CYP2D6): 7.47 µg/mL; IC50 (CYP2C9): 1180 nM; IC50 CYP2C9 (CYP2C9): 0.488 µg/mL; IC50 (CYP3A4): 1320 nM; IC50 CYP3A4 (CYP3A4): 0.544 µg/mL
